# Assay results published in PubChem BioAssay AID1963860 (Molecular Pharmacology Branch, DTP, NCI, 2024).
# pIC50: −log10 of the molar value.
# Tested on: CN0375-F725-PDC KRAS spheroid viability
# Test: Anticancer human tumor CN0375-F725-PDC patient-derived colon carcinoma cell line growth inhibition [KRAS2]
# Details: spheroids with HUVEC and MSC; for pIC50: curve of first compound; for viability, T/C: stronger effect = lower value
# In short: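 KRAS-mutant tumor cells were grown as spheroids with HUVEC endothelial cells and human MSCs as stroma. Targeted agents were tested alone and with KRAS pathway inhibitors. Doses started at or near clinical Cmax, or 10 microM, descending half-log.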
# [1] = second compound 0.1 µM, first compound 0.0316 µM
# [2] = second compound 0.316 µM, first compound 0.0316 µM
# [3] = second compound 1 µM, first compound 0.0316 µM
# [4] = second compound 3.16 µM, first compound 0.0316 µM
# [5] = second compound 10 µM, first compound 0.0316 µM
# [6] = second compound 0.1 µM, first compound 0.1 µM
# [7] = second compound 0.1 µM, first compound 0.316 µM
# [8] = second compound 0.1 µM, first compound 1 µM
# [9] = second compound 0.1 µM, first compound 3.16 µM
# [10] = second compound 0.1 µM, first compound 10 µM
# [11] = second compound 0.316 µM, first compound 0.1 µM
# [12] = second compound 0.316 µM, first compound 0.316 µM
# [13] = second compound 0.316 µM, first compound 1 µM
# [14] = second compound 0.316 µM, first compound 3.16 µM
# [15] = second compound 0.316 µM, first compound 10 µM
# [16] = second compound 1 µM, first compound 0.1 µM
# [17] = second compound 1 µM, first compound 0.316 µM
# [18] = second compound 1 µM, first compound 1 µM
# [19] = second compound 1 µM, first compound 3.16 µM
# [20] = second compound 1 µM, first compound 10 µM
# [21] = second compound 3.16 µM, first compound 0.1 µM
# [22] = second compound 3.16 µM, first compound 0.316 µM
# [23] = second compound 3.16 µM, first compound 1 µM
# [24] = second compound 3.16 µM, first compound 3.16 µM
# [25] = second compound 3.16 µM, first compound 10 µM
# [26] = second compound 10 µM, first compound 0.1 µM
# [27] = second compound 10 µM, first compound 0.316 µM
# [28] = second compound 10 µM, first compound 1 µM
# [29] = second compound 10 µM, first compound 3.16 µM
# [30] = second compound 10 µM, first compound 10 µM
# 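Also: spheroids exposed to agents for 7 days.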
compound,measurement,setting,value
CC(=O)Nc1cccc(-n2c(=O)n(C3CC3)c(=O)c3c(Nc4ccc(I)cc4F)n(C)c(=O)c(C)c32)c1 + CNCc1ccccc1-c1csc(C(C)Nc2nc(C)nc3cc(OC)c(OC)cc23)c1,pIC50,second compound 0.1 µM,8.47
same,pIC50,second compound 0.316 µM,8.72
same,pIC50,second compound 1 µM,> 10.00
same,pIC50,second compound 3.16 µM,> 10.00
same,pIC50,second compound 10 µM,> 10.00
same,"viability, T/C","second compound 0.1 µM, first compound 0.0001 µM",89.5%
same,"viability, T/C","second compound 0.1 µM, first compound 0.000316 µM",78%
same,"viability, T/C","second compound 0.1 µM, first compound 0.001 µM",59.4%
same,"viability, T/C","second compound 0.1 µM, first compound 0.00316 µM",51%
same,"viability, T/C","second compound 0.1 µM, first compound 0.01 µM",42.3%
same,"viability, T/C",[1],30.2%
same,"viability, T/C","second compound 0.316 µM, first compound 0.0001 µM",83.9%
same,"viability, T/C","second compound 0.316 µM, first compound 0.000316 µM",70.9%
same,"viability, T/C","second compound 0.316 µM, first compound 0.001 µM",56.4%
same,"viability, T/C","second compound 0.316 µM, first compound 0.00316 µM",42.7%
same,"viability, T/C","second compound 0.316 µM, first compound 0.01 µM",37.9%
same,"viability, T/C",[2],26.6%
same,"viability, T/C","second compound 1 µM, first compound 0.0001 µM",45.4%
same,"viability, T/C","second compound 1 µM, first compound 0.000316 µM",36.8%
same,"viability, T/C","second compound 1 µM, first compound 0.001 µM",13.3%
same,"viability, T/C","second compound 1 µM, first compound 0.00316 µM",18.2%
same,"viability, T/C","second compound 1 µM, first compound 0.01 µM",11.4%
same,"viability, T/C",[3],3.9%
same,"viability, T/C","second compound 3.16 µM, first compound 0.0001 µM",1.63%
same,"viability, T/C","second compound 3.16 µM, first compound 0.000316 µM",0.39%
same,"viability, T/C","second compound 3.16 µM, first compound 0.001 µM",0.3%
same,"viability, T/C","second compound 3.16 µM, first compound 0.00316 µM",0.37%
same,"viability, T/C","second compound 3.16 µM, first compound 0.01 µM",0.23%
same,"viability, T/C",[4],0.73%
same,"viability, T/C","second compound 10 µM, first compound 0.0001 µM",0.67%
same,"viability, T/C","second compound 10 µM, first compound 0.000316 µM",0.27%
same,"viability, T/C","second compound 10 µM, first compound 0.001 µM",0.26%
same,"viability, T/C","second compound 10 µM, first compound 0.00316 µM",0.37%
same,"viability, T/C","second compound 10 µM, first compound 0.01 µM",0.36%
same,"viability, T/C",[5],0.25%
COc1cc(Nc2ncc3c(n2)-c2ccc(Cl)cc2C(c2c(F)cccc2OC)=NC3)ccc1C(=O)O + CNCc1ccccc1-c1csc(C(C)Nc2nc(C)nc3cc(OC)c(OC)cc23)c1,pIC50,second compound 0.1 µM,< 5.00
same,pIC50,second compound 0.316 µM,< 5.00
same,pIC50,second compound 1 µM,< 5.00
same,pIC50,second compound 3.16 µM,> 7.50
same,pIC50,second compound 10 µM,> 7.50
same,"viability, T/C",[1],101%
same,"viability, T/C",[6],95%
same,"viability, T/C",[7],93.5%
same,"viability, T/C",[8],90.8%
same,"viability, T/C",[9],89%
same,"viability, T/C",[10],75.9%
same,"viability, T/C",[2],96.8%
same,"viability, T/C",[11],93.1%
same,"viability, T/C",[12],88.4%
same,"viability, T/C",[13],83.8%
same,"viability, T/C",[14],87.3%
same,"viability, T/C",[15],75.7%
same,"viability, T/C",[3],58.2%
same,"viability, T/C",[16],54.7%
same,"viability, T/C",[17],57.5%
same,"viability, T/C",[18],61%
same,"viability, T/C",[19],61.7%
same,"viability, T/C",[20],48.4%
same,"viability, T/C",[4],0.72%
same,"viability, T/C",[21],0.93%
same,"viability, T/C",[22],0.51%
same,"viability, T/C",[23],0.58%
same,"viability, T/C",[24],1.16%
same,"viability, T/C",[25],0.38%
same,"viability, T/C",[5],0.31%
same,"viability, T/C",[26],0.48%
same,"viability, T/C",[27],0.55%
same,"viability, T/C",[28],0.16%
same,"viability, T/C",[29],0.24%
same,"viability, T/C",[30],0.19%
COc1cc2nccc(Oc3ccc(NC(=O)C4(C(=O)Nc5ccc(F)cc5)CC4)cc3)c2cc1OC + CNCc1ccccc1-c1csc(C(C)Nc2nc(C)nc3cc(OC)c(OC)cc23)c1,pIC50,second compound 0.1 µM,5.52
same,pIC50,second compound 0.316 µM,5.91
same,pIC50,second compound 1 µM,> 7.50
same,pIC50,second compound 3.16 µM,> 7.50
same,pIC50,second compound 10 µM,> 7.50
same,"viability, T/C",[1],98.2%
same,"viability, T/C",[6],94.4%
same,"viability, T/C",[7],85.6%
same,"viability, T/C",[8],76.3%
same,"viability, T/C",[9],44.4%
same,"viability, T/C",[10],53.7%
same,"viability, T/C",[2],93%
same,"viability, T/C",[11],97.6%
same,"viability, T/C",[12],72.7%
same,"viability, T/C",[13],60.5%
same,"viability, T/C",[14],23%
same,"viability, T/C",[15],11.3%
same,"viability, T/C",[3],45.5%
same,"viability, T/C",[16],42.6%
same,"viability, T/C",[17],19.5%
same,"viability, T/C",[18],20.6%
same,"viability, T/C",[19],2.02%
same,"viability, T/C",[20],1.05%
same,"viability, T/C",[4],0.22%
same,"viability, T/C",[21],0.26%
same,"viability, T/C",[22],0.27%
same,"viability, T/C",[23],0.15%
same,"viability, T/C",[24],0.15%
same,"viability, T/C",[25],0.11%
same,"viability, T/C",[5],0.14%
same,"viability, T/C",[26],0.13%
same,"viability, T/C",[27],0.14%
same,"viability, T/C",[28],0.12%
same,"viability, T/C",[29],0.1%
same,"viability, T/C",[30],0.16%
